Literature values in US20170348276A1 (Acerus Pharmaceutical Corporation, priority 2016, published 2017).

Columns and labels:
[1] = percent of the activity of Δ9-THC

Structure (SMILES) | Bioavailability from oil-based oral delivery (oil-based capsule, oral) [%] | oral bioavailability (oral administration, extensive first pass hepatic metabolism) [%] | bioavailability, oral-mucosal/sublingual delivery (sprays/lozenges) | activity relative to Δ9-THC [1] [%]
C=C(C)[C@@H]1CCC(C)=C[C@H]1c1c(O)cc(CCCCC)cc1O [CBD, Cannabidiol] | ~6 | < 5 | up to 12% | –
CCCCCc1cc(O)c2c(c1)OC(C)(C)c1ccc(C)cc1-2 [Cannabinol (CBN), Cannabinol] | – | – | – | 10
